Assay results from patent US6469028B1, “Synthesis and use of retinoid compounds having negative hormone and/or anatgonist activities” (Allergan, Inc., priority 1995, dated 2002).

Columns and labels:
Assay type in all cases: cell-based
[1] = system: TPA-induced AP-1 activity; test: Example 15: anti-AP-1 activity, Str-AP1-CAT in HeLa cells
Method: HeLa cells were transfected with 1 μg of Str-AP1-CAT using LIPOFECTAMINE according to the method described by Nagpal et al. in J. Biol. Chem. 270:923 (1995). Transfected cells were treated with AGN 193109 alone (10^−9 to 10^−7 M), 1,25-dihydroxyvitamin D3 alone (10^−12 to 10^−7 M) or 1,25-dihydroxyvitamin D3 (10^−12 to 10^−7 M) in the presence of 10^−8 M AGN 193109.

[2] = system: 1,25-dihydroxyvitamin D3-dependent gene expression; test: Example 14: 1,25-dihydroxyvitamin D3 transactivation, MTV-VDRE-Luc in HeLa cells; conditions: AGN 193109 10-100 nM coadministered
Method: Hela cells were transfected using the cationic liposome-mediated transfection procedure described by Feigner et al. in Proc. Natl. Acad. Sci. USA 84:7413 (1987). 5×10^4 cells were plated in 12-well multiwell plates and grown in DMEM supplemented with 10% FBS. Cells were cotransfected in serum-free medium using 2 μg/well of LIPOFECTAMINE reagent (Life Technologies, Inc.) with 0.7 μg of the reporter plasmid MTV-VDRE-Luc, containing two copies of the 1,25-dihydroxyvitamin D3 response element [NT] ID NO:4) from the mouse osteopontin gene (Ferrara et al. J. Biol. Chem. 269:2971 (1994)) ligated into the reporter plasmid ΔMTV-Luc (Heyman et al. in Cell 68:397 (1992)), and 0.3 μg of the plasmid pGEM3Z (Pharmacia, Inc.) as carrier DNA to bring the final concentration of DNA to 1.0 μg per well. After six hours of transfection, cells were fed with growth medium containing charcoal extracted FBS at a final concentration of 10%. […] Luciferase activity was measured as described above. This experimental system allowed a convenient method of monitoring and quantitating 1,25-dihydroxyvitamin D3-dependent gene expression.

RARγ [3] = molecular target: T1, RARγ (Homo sapiens, UniProt P13631); test: Example 16: transactivation, MTV-TREp-Luc in HeLa cells
T1 sequence (P13631 1-454): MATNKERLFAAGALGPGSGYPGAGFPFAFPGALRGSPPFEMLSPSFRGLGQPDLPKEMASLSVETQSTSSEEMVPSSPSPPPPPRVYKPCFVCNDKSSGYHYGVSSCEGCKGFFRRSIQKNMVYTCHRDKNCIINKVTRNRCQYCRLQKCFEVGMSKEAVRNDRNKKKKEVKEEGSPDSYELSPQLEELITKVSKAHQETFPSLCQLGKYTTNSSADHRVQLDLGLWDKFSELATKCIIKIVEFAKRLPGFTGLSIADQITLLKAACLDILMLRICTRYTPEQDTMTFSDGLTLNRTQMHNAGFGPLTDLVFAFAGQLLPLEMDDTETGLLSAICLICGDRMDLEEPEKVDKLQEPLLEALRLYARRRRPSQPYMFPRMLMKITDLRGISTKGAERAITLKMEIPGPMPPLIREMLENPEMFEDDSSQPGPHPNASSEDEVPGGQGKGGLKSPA

RARγ [4] = molecular target: T1, RARγ; test: Example 7: inhibition of RAR transactivation by ATRA, CV-1 cells; conditions: equal doses of AGN 193109 and ATRA (10 nM ATRA)
RARα = molecular target: T2, RARα (Homo sapiens, UniProt P10276); test: as above; design: host or cells: TNT-coupled reticulocyte lysate in vitro transcription-translation; conditions: equal doses of AGN 193109 and ATRA (10 nM ATRA)
T2 sequence (P10276 1-462): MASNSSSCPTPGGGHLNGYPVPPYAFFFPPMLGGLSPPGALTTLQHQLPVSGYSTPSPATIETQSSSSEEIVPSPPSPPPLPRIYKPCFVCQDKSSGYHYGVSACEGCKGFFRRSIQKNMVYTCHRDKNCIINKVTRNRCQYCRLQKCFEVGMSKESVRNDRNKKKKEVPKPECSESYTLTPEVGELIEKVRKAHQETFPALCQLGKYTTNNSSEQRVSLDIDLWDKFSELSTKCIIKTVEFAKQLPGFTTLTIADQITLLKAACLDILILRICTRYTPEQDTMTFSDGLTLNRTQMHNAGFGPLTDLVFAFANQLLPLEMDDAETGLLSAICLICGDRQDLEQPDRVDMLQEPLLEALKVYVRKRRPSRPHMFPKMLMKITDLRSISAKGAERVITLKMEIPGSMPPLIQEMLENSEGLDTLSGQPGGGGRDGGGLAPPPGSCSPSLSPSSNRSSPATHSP
Method: Eukaryotic expression vectors pRShRAR-α (Giguere et al. Nature 330:624 (1987)), pRShRAR-β (Benbrook et al. Nature 333:669 (1988)) and pRShRAR-γ (Ishikawa et al. Mol. Endocrinol. 4:837 (1990)) were cotransfected with the Δ-MTV-Luc reporter plasmid described by Hollenberg et al. (Cell 55:899.(1988)). […] Calcium phosphate transfections were carried out exactly as described in Example 6. […] Cell lysates and luciferase activity measurements were also performed as in Example 6.

Question: How did the anti-AP-1 activity ([1]; AGN 193109 alone, 10^−9 to 10^−7 M) turn out when Cc1ccc(C2=CCC(C)(C)c3ccc(C#Cc4ccc(C(=O)O)cc4)cc32)cc1 [Compound 60, 4-[(5,6-dihydro-5,5-dimethyl-8-(4-methylphenyl)-2-naphthalenyl)ethynyl]benzoic acid] was run?
Answer: no detectable anti-AP-1 activity

Question: What about the “anti-AP-1 activity of 1,25-dihydroxyvitamin D3” value ([1]; in the presence of 10^−8 M AGN 193109) of the same compound?
Answer: anti-AP-1 activity was detectable at 10^−10 and 10^−9 M 1,25-dihydroxyvitamin D3

Question: And the “increase in activity of 1,25-dihydroxyvitamin D3” value [2]?
Answer: approximately 10 fold

Question: What about the “inhibition of the response to 10^−9 M AGN 191183” value (RARγ [3]; 10^−9 M AGN 193109, HeLa cells, preliminary experiments) of the same compound?
Answer: relatively ineffective

Question: What about the luciferase activity (RARγ [3]; AGN 193109 10^−11 and 10^−10 M with AGN 191183 10^−10 or 10^−9 M) of the same compound?
Answer: stimulation of luciferase activity over that of AGN 191183 alone

Question: And the “inhibition of luciferase activity relative to ATRA alone” value (RARγ [4])?
Answer: greater than 50%

Question: What about the “inhibition of luciferase activity relative to ATRA alone” value (RARα) of the same compound?
Answer: greater than 50%
